Results as given in patent US20210040062A1, “AZOLE-SUBSTITUTED PYRIDINE COMPOUND” (TAISHO PHARMACEUTICAL CO., LTD., priority 2016, published 2021).
pIC50: −log10 of the molar value.

What was measured:
[1] = target: T1, human CYP4F2 (Homo sapiens, UniProt P78329); assay: CYP4F2 inhibition test (Test Example 1); assay type: biochemical; conditions: Escherichia coli membrane fraction expressing human CYP4F2, 2.5 μM luciferine derivative, room temperature 60 minutes, luminescence
T1 construct: host or cells: Escherichia coli (membrane fraction)
T1 sequence (P78329 5-520): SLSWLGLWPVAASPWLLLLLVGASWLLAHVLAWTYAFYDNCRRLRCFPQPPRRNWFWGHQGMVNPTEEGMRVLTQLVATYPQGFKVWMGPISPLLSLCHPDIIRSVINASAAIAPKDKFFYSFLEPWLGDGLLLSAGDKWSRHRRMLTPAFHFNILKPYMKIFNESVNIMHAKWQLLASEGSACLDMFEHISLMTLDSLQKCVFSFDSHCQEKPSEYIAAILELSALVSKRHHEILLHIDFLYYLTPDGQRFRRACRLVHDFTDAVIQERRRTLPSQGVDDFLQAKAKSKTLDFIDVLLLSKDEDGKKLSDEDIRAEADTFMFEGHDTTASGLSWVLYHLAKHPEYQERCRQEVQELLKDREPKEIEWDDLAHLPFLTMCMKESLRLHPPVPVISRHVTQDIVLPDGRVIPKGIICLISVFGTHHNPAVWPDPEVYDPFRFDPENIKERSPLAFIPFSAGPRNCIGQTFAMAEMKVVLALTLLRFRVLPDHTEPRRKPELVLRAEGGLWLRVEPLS
Method in brief: (§1)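 E. coli membranes expressing human enzyme (100 μg/mL protein) with luciferin-derivative substrate, 60 min at room temperature, then luminescence read. CYP4F2: 50 mM KPO4 pH 7.4, 2.5 μM substrate, 1 mM NADPH. CYP4A11: 100 mM Tris-HCl pH 7.5, 60 μM substrate, NADP+/glucose 6-phosphate regenerating system.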

[2] = target: T2, human CYP4A11 (Homo sapiens, UniProt Q02928); assay: CYP4A11 inhibition test (Test Example 1); assay type: biochemical; conditions: Escherichia coli membrane fraction expressing human CYP4A11, 60 μM luciferine derivative, room temperature 60 minutes, luminescence
T2 construct: host or cells: Escherichia coli (membrane fraction)
T2 sequence (Q02928 5-519): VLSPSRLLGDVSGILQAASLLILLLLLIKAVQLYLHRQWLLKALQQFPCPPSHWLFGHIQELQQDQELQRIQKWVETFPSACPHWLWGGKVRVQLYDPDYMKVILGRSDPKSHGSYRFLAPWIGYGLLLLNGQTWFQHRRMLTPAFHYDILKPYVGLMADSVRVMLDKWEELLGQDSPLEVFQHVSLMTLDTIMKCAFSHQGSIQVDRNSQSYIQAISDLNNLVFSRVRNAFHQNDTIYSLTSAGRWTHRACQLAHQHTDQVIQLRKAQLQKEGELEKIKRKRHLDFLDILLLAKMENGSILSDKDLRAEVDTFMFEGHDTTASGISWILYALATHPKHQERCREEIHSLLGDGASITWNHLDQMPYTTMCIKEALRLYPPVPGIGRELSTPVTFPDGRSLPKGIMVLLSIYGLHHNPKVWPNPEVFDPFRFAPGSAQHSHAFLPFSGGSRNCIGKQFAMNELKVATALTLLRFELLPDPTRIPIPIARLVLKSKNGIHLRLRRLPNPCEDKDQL
Method in brief: as §1

Row | Compound | pIC50 [1] | pIC50 [2]
1 | O=C(CCS(=O)(=O)C(F)(F)F)N1CCC[C@@H](COc2ccc(-c3ccn[nH]3)nc2)C1 [Example 3-36] | 7.05 | 6.15
2 | CC(C)CC(=O)N1CC(S(=O)(=O)N2CCC[C@@H](COc3ccc(-c4ccn[nH]4)nc3)C2)C1 [Example 1-20] | 8.07 | 7.11
3 | O=C(C1CCC1)N1CCC(COc2ccc(-c3ccn[nH]3)nc2)CC1 [Example 2-3] | 7.12 | 6.44
4 | Cc1cccc(COc2ccc(-c3ccn[nH]3)nc2)c1 [Reference Example 54-1, 5-[(3-Methylphenyl)methoxy]-2-(1H-pyrazol-5-yl)pyridine] | 7.06 | 6.47
5 | CC(C)S(=O)(=O)N1CC(COc2ccc(-c3ccn[nH]3)nc2)C1 [Example 1-26] | 7.03 | 5.64
6 | CS(=N)(=O)c1cccc(COc2ccc(-c3ccn[nH]3)nc2)c1 (single isomer, unassigned) [Example 50-2, Imino-methyl-oxo-(3-{[6-(1H-pyrazol-5-yl)pyridin-3-yl]oxymethyl}phenyl)-λ^6-sulfane] | 5.92 | 6.60
7 | CC(=O)N[C@H]1C[C@@H](COc2ccc(-c3ccn[nH]3)nc2)C1 [Example 16-1-1, N-[cis-3-({[6-(1H-Pyrazol-5-yl)pyridin-3-yl]oxy}methyl)cyclobutyl]acetamide] | 7.77 | 5.27
8 | CC(=O)N1CCC(C(=O)N2CCC[C@@H](COc3ccc(-c4ccn[nH]4)nc3)C2)CC1 [Example 3-24] | 6.31 | 5.70
9 | O=C(CC1CCOCC1)N1CCC[C@@H](COc2ccc(-c3ccn[nH]3)nc2)C1 [Example 3-33] | 6.66 | 5.60
10 | CCOC(=O)NCCS(=O)(=O)N1CCC[C@@H](COc2ccc(-c3ccn[nH]3)nc2)C1 [Example 1-24] | 7.40 | 7.46
11 | CS(=N)(=O)c1cccc(COc2ccc(-c3ccn[nH]3)nc2)c1 (single isomer, unassigned) [Example 50-3, Imino-methyl-oxo-(3-{[6-(1H-pyrazol-5-yl)pyridin-3-yl]oxymethyl}phenyl)-λ^6-sulfane] | 6.42 | 6.47
12 | CC(=O)N1CCC[C@H]1CCOc1ccc(-c2ccn[nH]2)nc1 [Example 13-7] | 5.64 | 6.28
13 | O=C(CCN1CCCS1(=O)=O)N1CCC[C@@H](COc2ccc(-c3ccn[nH]3)nc2)C1 [Example 3-38] | 6.42 | 5.74
14 | CC(=O)N(C)[C@H]1CC[C@H](Oc2ccc(-c3ccn[nH]3)nc2)CC1 [Example 20-5] | 6.82 | 5.19
15 | O=C(C1CCOCC1)N1CCC[C@@H](COc2ccc(-c3ccn[nH]3)nc2)C1 [Example 3-9] | 5.89 | 5.70
16 | CC(=O)N1CCC(COc2ccc(-c3[nH]ncc3F)nc2)CC1 [Example 23-1, 1-[4-({[6-(4-Fluoro-1H-pyrazol-5-yl)pyridin-3-yl]oxy}methyl)piperidin-1-yl]ethan-1-one] | 7.89 | 7.15
17 | CC(=O)N1CC[C@H](CCOc2ccc(-c3ccn[nH]3)nc2)C1 [Example 13-9] | 6.66 | 5.70
18 | C[C@H](CNC(=O)OC(C)(C)C)C(=O)N1CCC[C@@H](COc2ccc(-c3ccn[nH]3)nc2)C1 [Example 2-12] | 7.64 | 6.27
19 | CS(=O)(=O)c1ccccc1CCOc1ccc(-c2cn[nH]c2)nc1 [Example 39-2] | 6.49 | 7.02
20 | NC(=O)CCC(=O)N1CCC[C@@H](COc2ccc(-c3ccn[nH]3)nc2)C1 [Example 3-19] | 5.62 | 6.00
21 | CC(C)S(=O)(=O)N1CC[C@@H](COc2ccc(-c3ccn[nH]3)nc2)C1 [Example 10-13] | 6.89 | 6.77
22 | CS(=O)(=O)c1ccc(COc2ccc(-c3ccn[nH]3)nc2)cc1 [Example 25-18] | 7.02 | 5.22
23 | Clc1cccc(COc2ccc(-c3ccn[nH]3)nc2)c1 [54-18] | 7.64 | 6.89

Row | Compound | pIC50 [1] | pIC50 [2]
24 | c1cc(-c2ccc(OCc3ccc4nccnc4c3)cn2)[nH]n1 [Example 25-15] | 7.96 | 5.57
25 | CC(=O)N1CCC(COc2ccc(-n3ccnn3)nc2)CC1 [Example 45-1, 1-(4-{[6-(Triazol-1-yl)pyridin-3-yl]oxymethyl}piperidin-1-yl)ethanone] | 6.43 | 5.89
26 | CC(=O)N1CCCC[C@@H]1CCOc1ccc(-c2ccn[nH]2)nc1 [Example 13-5] | 5.30 | 5.48
27 | CC(C)NC(=O)N1CCC(COc2ccc(-c3ccn[nH]3)nc2)CC1 [Example 5-1, N-(Propan-2-yl)-4-({[6-(1H-pyrazol-5-yl)pyridin-3-yl]oxy}methyl)piperidin-1-carboxamide] | 6.77 | 5.92
28 | CN(C)S(=O)(=O)c1ccc(COc2ccc(-c3ccn[nH]3)nc2)cc1 [Example 25-3, N,N-Dimethyl-4-{[6-(1H-pyrazol-5-yl)pyridin-3-yl]oxymethyl}benzenesulfonamide] | 6.85 | 5.77
29 | c1cc(-c2ccc(OCc3ccnc(-n4cncn4)c3)cn2)[nH]n1 [Example 25-9] | 7.92 | 5.89
30 | CC(C)OC(=O)N1CCC[C@H](COc2ccc(-c3ccn[nH]3)nc2)C1 [Example 1-14] | 7.41 | 6.48
31 | O=C([C@H]1CC[C@@H](O)CC1)N1CCC(COc2ccc(-c3ccn[nH]3)nc2)CC1 [Example 2-7] | 6.36 | 5.28
32 | O=S(=O)(C1CC1)N1CC[C@@H](COc2cnc(-c3ccn[nH]3)c(F)c2)C1 [Example 10-19] | 7.24 | 6.92
33 | CC(=O)N1CCCC1C(=O)N1CCC[C@@H](COc2ccc(-c3ccn[nH]3)nc2)C1 (some centres unmarked) [Example 3-23] | 5.33 | 5.49
34 | CN(C)S(=O)(=O)N1CC(COc2ccc(-c3ccn[nH]3)nc2)C1 [Example 1-25] | 6.19 | 5.80
35 | CS(=O)(=O)c1cccc(COc2ccc(-n3cnnc3)nc2)c1 [Example 45-6] | 4.80 | 5.24
36 | COC(=O)N1CCC(COc2ccc(-c3ccn[nH]3)nc2)CC1 [Example 1-3] | 7.14 | 6.51
37 | Fc1cc(F)cc(COc2ccc(-c3ccn[nH]3)nc2)c1 [54-9] | 6.89 | 6.17
38 | CC(=O)N(C)[C@H]1C[C@H](COc2ccc(-c3ccn[nH]3)nc2)C1 [Example 17-1-2, N-Methyl-N-[trans-3-({[6-(1H-pyrazol-5-yl)pyridin-3-yl]oxy}methyl)cyclobutyl]acetamide] | 7.72 | 5.57
39 | COC(=O)N1CCC(CCOc2cnc(-c3ccn[nH]3)c(F)c2)CC1 [Example 24-6] | 7.60 | 7.19
40 | CN(C(=O)N1CCC(COc2ccc(-c3ccn[nH]3)nc2)CC1)C1CC1 [Example 8-2, N-Cyclopropyl-N-methyl-4-({[6-(1H-pyrazol-5-yl)pyridin-3-yl]oxy}methyl)piperidin-1-carboxamide] | 7.05 | 6.03
41 | O=c1ccc2cc(COc3ccc(-c4ccn[nH]4)nc3)ccc2o1 [Example 25-11] | 8.52 | 5.80
42 | COc1ccc(COc2ccc(-c3ccn[nH]3)nc2)cc1S(C)(=O)=O [Example 25-10] | 7.70 | 5.96
43 | CC(=O)N(C)CC12CC(COc3ccc(-c4ccn[nH]4)nc3)(C1)C2 [Example 22-1, N-Methyl-N-{[3-({[6-(1H-pyrazol-5-yl)pyridin-3-yl]oxy}methyl)bicyclo[1.1.1]pentan-1-yl]methyl}acetamide] | 7.72 | 6.41
44 | CS(=O)(=O)c1cccc(COc2ccc(-c3[nH]ncc3C(N)=O)nc2)c1 [Example 48-1, 5-{5-[(3-Methylsulfonylphenyl)methoxy]pyridin-2-yl}-1H-pyrazole-4-carboxamide] | 4.48 | 4.70
45 | O=C(N1CCC(COc2ccc(-c3ccn[nH]3)nc2)CC1)N1CC(F)C1 [Example 7-2] | 7.54 | 5.96
46 | FC(F)(F)c1cccc(COc2ccc(-c3ccn[nH]3)nc2)c1 [Example 25-29] | 7.06 | 7.17
